Experiments:
MAPK14 (human) = MAPK14 (human) (UniProt Q16539); test: Enzyme Assay
ROCK2 (human) = ROCK2 (human) (UniProt O75116); test: Enzyme Assay
CDK2 (human) = CDK2 (human) (UniProt P24941); test: Enzyme Assay
EGFR (human) = EGFR (human) (UniProt P00533)
Chain of EGFR (human) (P00533 whole entry, looked up): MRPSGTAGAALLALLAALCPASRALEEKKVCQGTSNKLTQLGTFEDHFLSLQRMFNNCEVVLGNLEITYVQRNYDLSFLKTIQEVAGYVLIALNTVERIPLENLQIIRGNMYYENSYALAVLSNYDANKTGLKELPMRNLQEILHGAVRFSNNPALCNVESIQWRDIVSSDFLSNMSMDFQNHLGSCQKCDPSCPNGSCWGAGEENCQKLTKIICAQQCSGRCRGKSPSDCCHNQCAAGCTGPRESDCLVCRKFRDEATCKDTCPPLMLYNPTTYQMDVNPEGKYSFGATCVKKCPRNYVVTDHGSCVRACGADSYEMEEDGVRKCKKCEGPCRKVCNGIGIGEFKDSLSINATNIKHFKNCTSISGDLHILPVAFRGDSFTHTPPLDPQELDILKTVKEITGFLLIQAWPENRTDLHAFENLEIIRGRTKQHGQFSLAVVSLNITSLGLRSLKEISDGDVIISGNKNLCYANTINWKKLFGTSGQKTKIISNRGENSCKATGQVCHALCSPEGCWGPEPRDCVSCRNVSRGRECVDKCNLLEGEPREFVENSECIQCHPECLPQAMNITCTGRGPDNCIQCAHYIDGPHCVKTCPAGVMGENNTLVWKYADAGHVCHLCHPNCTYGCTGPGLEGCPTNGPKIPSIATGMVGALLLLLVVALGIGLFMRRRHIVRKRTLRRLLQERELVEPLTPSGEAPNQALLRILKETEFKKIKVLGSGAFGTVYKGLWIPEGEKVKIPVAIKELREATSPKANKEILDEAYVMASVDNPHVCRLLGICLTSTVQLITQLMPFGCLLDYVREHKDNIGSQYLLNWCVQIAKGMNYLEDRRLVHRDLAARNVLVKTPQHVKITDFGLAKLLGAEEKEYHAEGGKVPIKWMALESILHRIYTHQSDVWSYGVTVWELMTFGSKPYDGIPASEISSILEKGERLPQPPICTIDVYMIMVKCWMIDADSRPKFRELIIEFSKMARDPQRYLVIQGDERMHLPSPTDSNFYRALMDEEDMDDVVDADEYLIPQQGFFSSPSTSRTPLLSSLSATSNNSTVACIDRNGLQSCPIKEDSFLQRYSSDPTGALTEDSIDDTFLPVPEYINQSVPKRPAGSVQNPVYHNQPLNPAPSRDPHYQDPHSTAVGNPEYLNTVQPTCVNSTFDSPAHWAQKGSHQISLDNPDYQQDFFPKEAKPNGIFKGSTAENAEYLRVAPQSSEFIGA

Chain of MAPK14 (human) (Q16539 whole entry, looked up): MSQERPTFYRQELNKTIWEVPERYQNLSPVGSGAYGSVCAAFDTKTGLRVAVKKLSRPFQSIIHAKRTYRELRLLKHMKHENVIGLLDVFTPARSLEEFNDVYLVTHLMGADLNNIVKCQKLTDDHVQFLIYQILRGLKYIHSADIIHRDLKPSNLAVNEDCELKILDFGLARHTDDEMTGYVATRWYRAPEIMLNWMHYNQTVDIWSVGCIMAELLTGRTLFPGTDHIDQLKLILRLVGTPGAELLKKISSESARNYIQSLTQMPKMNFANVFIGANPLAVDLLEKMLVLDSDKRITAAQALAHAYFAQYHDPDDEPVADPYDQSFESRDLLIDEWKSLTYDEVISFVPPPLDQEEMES
Chain of ROCK2 (human) (O75116 whole entry, looked up): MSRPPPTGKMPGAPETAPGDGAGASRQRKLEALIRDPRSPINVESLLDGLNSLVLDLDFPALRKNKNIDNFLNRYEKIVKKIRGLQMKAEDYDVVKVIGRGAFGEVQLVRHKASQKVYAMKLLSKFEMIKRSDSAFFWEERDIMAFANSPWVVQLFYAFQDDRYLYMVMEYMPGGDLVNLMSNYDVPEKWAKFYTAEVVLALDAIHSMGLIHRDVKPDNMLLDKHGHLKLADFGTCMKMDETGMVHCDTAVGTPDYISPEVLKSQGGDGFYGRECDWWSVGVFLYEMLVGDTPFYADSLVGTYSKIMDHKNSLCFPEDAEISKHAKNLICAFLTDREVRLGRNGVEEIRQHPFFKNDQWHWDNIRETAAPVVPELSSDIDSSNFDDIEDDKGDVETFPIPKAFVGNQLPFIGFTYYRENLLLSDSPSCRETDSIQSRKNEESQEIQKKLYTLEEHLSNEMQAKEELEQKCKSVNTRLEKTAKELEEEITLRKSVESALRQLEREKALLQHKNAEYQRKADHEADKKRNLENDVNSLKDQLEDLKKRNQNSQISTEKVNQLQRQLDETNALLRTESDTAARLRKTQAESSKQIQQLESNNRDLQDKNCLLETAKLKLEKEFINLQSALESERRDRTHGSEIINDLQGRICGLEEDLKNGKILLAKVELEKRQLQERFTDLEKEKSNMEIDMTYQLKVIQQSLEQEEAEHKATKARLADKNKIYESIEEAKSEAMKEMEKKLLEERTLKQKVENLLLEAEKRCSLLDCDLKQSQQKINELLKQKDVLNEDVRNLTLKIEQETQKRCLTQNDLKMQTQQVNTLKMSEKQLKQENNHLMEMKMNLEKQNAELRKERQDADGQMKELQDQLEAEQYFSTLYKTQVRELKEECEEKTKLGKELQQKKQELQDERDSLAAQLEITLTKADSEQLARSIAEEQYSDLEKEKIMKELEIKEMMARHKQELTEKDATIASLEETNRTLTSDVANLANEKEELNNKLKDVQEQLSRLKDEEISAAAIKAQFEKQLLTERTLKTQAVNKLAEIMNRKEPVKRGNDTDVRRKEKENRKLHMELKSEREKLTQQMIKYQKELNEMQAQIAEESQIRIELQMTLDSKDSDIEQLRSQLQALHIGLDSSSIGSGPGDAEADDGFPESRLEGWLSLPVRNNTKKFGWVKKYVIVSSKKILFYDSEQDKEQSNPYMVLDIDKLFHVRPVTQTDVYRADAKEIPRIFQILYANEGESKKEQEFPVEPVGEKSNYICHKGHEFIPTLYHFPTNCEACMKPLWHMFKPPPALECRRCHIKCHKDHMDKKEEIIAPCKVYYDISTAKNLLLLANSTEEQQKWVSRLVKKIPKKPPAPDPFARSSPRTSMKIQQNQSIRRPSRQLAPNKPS

SMILES | Ki (MAPK14 (human)) [nM] | Ki (ROCK2 (human)) [nM] | Ki (CDK2 (human)) [nM] | Ki (EGFR (human)) [nM]
CCN(CCN(C)C)C(=O)c1cccc(-n2nc(C(C)(C)C)cc2NC(=O)Nc2cccc3ccccc23)c1 | 794 | – | – | –
COc1c(-c2nc3ccccc3[nH]2)c(O)cc2oc(C)cc(=O)c12 | 3980 | – | – | –
Nc1ccc2cc(NCCc3ccccc3)cc(Nc3ncccn3)c2n1 | 2510 | – | – | –
COCC(C)Nc1cc(-c2c[nH]c3ncccc23)cc(Cl)n1 (centres undefined) | – | 7.94 | 158 | –
Cc1ccc2nccc(NC(=O)Nc3cccc(C(F)(F)F)n3)c2c1 | – | > 6310 | 79.4 | –
O=C(Cc1cccs1)Nc1nc2ccccc2s1 | 3980 | – | – | –
Cc1cc(=O)[nH]c2[nH]nc(-c3cccc(C(F)(F)F)c3)c12 | 398 | – | – | –
CC(C)(C)c1cc(NC(=O)c2cc3ccccc3s2)n(-c2ccc(OCC(=O)O)cc2)n1 | 2510 | – | – | –
O=C1Nc2ccccc2Nc2cc(-c3ccncc3F)ccc21 | – | 126 | 398 | –
NC(=O)Cn1cc(-c2cc(-c3cc4ccccc4s3)c3[nH]ncc3c2)c2nc(N)ncc21 | – | 316 | 398 | –
CCNC(=O)c1[nH]nc(-c2cc(Cl)c(O)cc2O)c1-c1ccc(OC)cc1 | – | 2510 | 6310 | –
Nc1n[nH]c2ccc(-c3cc(Cc4ccccc4)no3)cc12 | – | 25.1 | 200 | –
Fc1cccc(CNc2ncnc3[nH]cnc23)c1 | 15800 | – | – | –
CN(C)CCCOc1cc(-c2ccncc2)cc2[nH]nc(N)c12 | – | 251 | 3160 | –
CC(C)(O)CNc1cc(-c2c[nH]c3ncccc23)cc(Cl)n1 | – | 15.8 | 251 | –
c1ccc(Cn2cc(-c3ccc4[nH]nc(-c5cn(Cc6ccccc6)nn5)c4c3)nn2)cc1 | – | 126 | 5.01 | –
CCC(=O)Nc1ccc(C(=O)N2CCNCC2)c(O)c1 | 1000 | – | – | –

SMILES | Ki (MAPK14 (human)) [nM] | Ki (ROCK2 (human)) [nM] | Ki (CDK2 (human)) [nM] | Ki (EGFR (human)) [nM]
Fc1cccc(-c2c[nH]c3ncccc23)c1 | – | 316 | 1260 | –
N#Cc1ccc2[nH]c(O)c(-c3ccc(CN4CCOCC4)cn3)c2c1 | – | > 6310 | 1000 | –
CN(Cc1ccccc1)c1cc(-c2c[nH]c3ncccc23)cc(Cl)n1 | – | 20 | 31.6 | –
OCCNc1cc(-c2c[nH]c3ncccc23)cc(Cl)n1 | – | 20 | 316 | –
O=C1Nc2ccccc2Nc2cc(-c3ccncc3Cl)ccc21 | – | 631 | 501 | –
Cc1ccc(Nc2nccc(Nc3ccccc3C(=O)O)n2)cc1F | – | > 7940 | 398 | –
O=C1c2ccccc2-c2n[nH]c3cccc1c23 | – | 3160 | 79.4 | –
CC(C)(C)c1cc(NC(=O)Nc2cccc3ccccc23)n(-c2cccc(C(=O)N(CCN)CCO)c2)n1 | 631 | – | – | –
Cc1ccc(-c2cc(-c3cc(Br)ccc3O)[nH]c(=O)c2C#N)s1 | 2510 | – | – | –
O=C1Nc2ccccc2Nc2cc(-c3ccncc3)ccc21 | – | 316 | 1000 | –
CCCCNc1cc(-c2c[nH]c3ncccc23)ncn1 | – | 20 | 200 | –
NC(=O)c1ccc2nc(-c3ccc([N+](=O)[O-])o3)cn2c1 | 3160 | – | – | –
CC(C)(C)c1cc(NC(=O)c2cc3ccccc3s2)n(-c2cccc(OCC(=O)O)c2)n1 | 794 | – | – | –
Nc1n[nH]c2ccc(-c3nnn(Cc4ccccc4)c3C3CC3)cc12 | – | 20 | 79.4 | –
CN(C)C1CCC(Nc2nc(Cl)cc(-c3c[nH]c4ncccc34)n2)CC1 (centres undefined) | – | 2.51 | 25.1 | –
COc1cc2ncn(-c3cc(OCc4ccccc4C(F)(F)F)c(C(N)=O)s3)c2cc1OC | – | > 7940 | – | 251

Continued, values first:

Ki (MAPK14 (human)) [nM] | Ki (ROCK2 (human)) [nM] | Ki (CDK2 (human)) [nM] | Ki (EGFR (human)) [nM] | SMILES
– | 12.6 | 100 | – | C=CCNc1cc(-c2c[nH]c3ncccc23)cc(Cl)n1
– | 63.1 | 12.6 | – | NCCCn1cc(-c2cc(-c3cc4ccccc4s3)c3[nH]ncc3c2)c2nc(N)ncc21
– | 100 | 501 | – | Cc1n[nH]c2ccc(-c3cncc(OCCN(C)S(C)(=O)=O)c3)cc12
– | 3160 | 5010 | – | CCCCCCCCCCCCOc1ccc(NC(=N)N)cc1NC(=N)N
– | 63.1 | 398 | – | CCCCNc1c(-c2ccc3[nH]ncc3c2)nc2ncccn12
– | 794 | 794 | – | O=c1cc(-c2ccncc2)nc(NCc2cc(F)cc(F)c2)[nH]1
3160 | > 1000 | – | – | O=C(Nc1cc(-c2c[nH]c3ncccc23)cc(Cl)n1)c1ccccc1
631 | – | – | – | CC(C)(C)c1cc(NC(=O)C(=O)c2cccc3ccccc23)n(-c2ccc(OCCC(N)=O)cc2)n1
– | 63.1 | 100 | – | c1ccc(Cn2cc(-c3ccc4[nH]nc(-c5ccccc5)c4c3)nn2)cc1
– | > 7940 | 158 | – | O=C(NCc1ccccc1)c1c[nH]n2c(=O)cc(-c3ccncc3)nc12
– | > 7940 | 126 | – | CN1CCN(c2nc(C3=C(c4c[nH]c5ccccc45)C(=O)NC3=O)c3ccccc3n2)CC1
– | 50.1 | 126 | – | CC(C)(C)Oc1cc(-c2ccncc2)cc2[nH]nc(N)c12
– | 20 | 126 | – | CN(C)c1ccc(-c2c(-c3ccc4[nH]nc(N)c4c3)nnn2Cc2ccccc2)cc1
– | 158 | 316 | – | Cc1n[nH]c2ccc(-c3cncc(OCCNS(C)(=O)=O)c3)cc12
– | 6.31 | 3.98 | – | c1cnc2[nH]cc(-c3ccnc(NCC4CCCCC4)n3)c2c1
– | > 5010 | 316 | – | O=C(O)c1ccccc1Nc1ncnc(Nc2ccc3cn[nH]c3c2)n1
– | 63.1 | 200 | – | CCCCNc1cc(-c2ccncc2)cc2[nH]nc(N)c12
50100 | – | – | – | c1ccc(-c2ncc3ccccn23)cc1

Ki (MAPK14 (human)) [nM] | Ki (ROCK2 (human)) [nM] | Ki (CDK2 (human)) [nM] | Ki (EGFR (human)) [nM] | SMILES
– | > 7940 | 631 | – | O=[N+]([O-])c1cccc(-c2nnc3ccc(N4CCCCC4)nn23)c1
– | 15.8 | 126 | – | OCCCCNc1cc(-c2c[nH]c3ncccc23)cc(Cl)n1
– | 12.6 | 39.8 | – | Cc1cccc(CNc2cc(-c3c[nH]c4ncccc34)ncn2)c1
– | 794 | 12.6 | – | COc1ccc(C(=O)Nc2n[nH]c3ccc(-c4cn(Cc5ccccc5)nn4)cc23)cc1OC
501 | – | – | – | COc1ccc(C2=NNc3cccc4c(OC)ccc2c34)cc1OC
631 | – | – | – | CC(C)(C)c1cc(NC(=O)C(=O)c2cccc3ccccc23)n(-c2ccc(OCC(=O)NCCO)cc2)n1
– | 79.4 | 631 | – | CN(C)c1cc(-c2ccncc2)cc2[nH]nc(N)c12
– | 31.6 | 3980 | – | CCOC(=O)c1cn(-c2ccc(O)cc2C)c2cc(-c3ccncc3)ccc2c1=O
– | 1580 | 1260 | – | NC(=O)c1ccc(-c2ccnc(N)n2)cc1N1CCCCC1
– | 10 | 100 | – | CC(C)(CO)CCCNc1cc(-c2c[nH]c3ncccc23)cc(Cl)n1
– | 39.8 | 2000 | – | COCCN(CCOC)c1cc(-c2c[nH]c3ncccc23)cc(Cl)n1
– | 31.6 | 200 | – | Cc1cccc(CNc2cc(-c3c[nH]c4ncccc34)cc(Cl)n2)c1C
– | > 7940 | 251 | – | COc1ccccc1C(=O)Nc1n[nH]c2ccc(-c3cn(Cc4ccccc4)nn3)cc12
– | 251 | 501 | – | NC(=O)c1ccc(Nc2ncnc3[nH]cc(-c4ccccc4)c23)cc1
7940 | – | – | – | CC(=O)n1ncc2cc(N)ccc21
– | 20 | 501 | – | CNCCOc1cncc(-c2ccc3[nH]nc(C)c3c2)c1
100 | – | – | – | Cc1cc(=O)[nH]nc1-c1ccc(NC(=O)Nc2cc(C(F)(F)F)ccc2F)c(Cl)c1
794 | – | – | – | CC(C)CC(NC(=O)c1cccc(-n2nc(C(C)(C)C)cc2NC(=O)Nc2cccc3ccccc23)c1)C(N)=O (centres undefined)

Source: the Kinase Knowledgebase extract (Sharma et al. 2016)
